Assay results published in patent US20230085307A1, “PYRIDAZINONE COMPOUND AND HERBICIDE” (NISSAN CHEMICAL CORPORATION, priority 2019, published 2023).

Columns and labels:
Japanese bulrush = experiment: Test Example 1: herbicidal activity, application before weed generation under submerged conditions (Table 16, symbol B); type: in vivo, Japanese bulrush (Schoenoplectus juncoides); conditions: 320 g/ha applied herbicide
How it was run: (§1)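 Alluvial soil was flooded to 4 cm depth, weed seeds were sown mixed and 2.5-leaf rice seedlings were transplanted. On sowing day, the compound's emulsion, diluted in water to a set dose, was applied to the water surface. Plants grew at 25–30 °C and were scored 0–5 after three weeks.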

oval-leafed pondweed = experiment: Test Example 1: herbicidal activity, application before weed generation under submerged conditions (Table 16, symbol C); type: in vivo, oval-leafed pondweed (Monochoria vaginalis); conditions: 320 g/ha applied herbicide
How it was run: as §1

late watergrass = experiment: Test Example 2: herbicidal activity, application during weed generation under submerged conditions (Table 17, symbol A); type: in vivo, late watergrass (Echinochloa oryzicola); conditions: AAH 320 g/ha; application during weed generation, submerged conditions
How it was run: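 Mixed weed seedlings in alluvial soil under a 4 cm water layer, greenhouse-grown at 25–30° C. Compound given as a diluted emulsion into the floodwater at the 1–2 leaf stage; response graded after three weeks.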

barnyard grass [1] = experiment: Test Example 3: herbicidal effect by foliage application, Wagner pot (Table 18, symbol H); type: in vivo, barnyard grass (Echinochloa crus-galli); conditions: amount of applied herbicide 320 g/ha
How it was run: (§2)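 Plants were sown in alluvial soil held under 0.1–0.5 cm standing water and grown 14 days in a greenhouse at 25–30 °C. An emulsifiable formulation, water-diluted to the set dose, was then sprayed onto the foliage, and effects were scored three weeks later using previously defined criteria.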

Chinese sprangletop = experiment: Test Example 3: herbicidal effect by foliage application, Wagner pot (Table 18, symbol D); type: in vivo, chinese sprangletop (Leptochloa chinensis); conditions: amount of applied herbicide 320 g/ha
How it was run: as §2

rice flat sedge = experiment: Test Example 3: herbicidal effect by foliage application, Wagner pot (Table 18, symbol E); type: in vivo, rice flat sedge (Cyperus iria); conditions: amount of applied herbicide 320 g/ha
How it was run: as §2

barnyard grass [2] = experiment: Test Example 4: herbicidal effect by soil treatment (Table 19, symbol H); type: in vivo, barnyard grass (Echinochloa crus-galli); conditions: amount of applied herbicide 320 g/ha
How it was run: (§3)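 Step 1: sow seeds in sterilized diluvial soil, cover ~1.5 cm. Step 2: spray diluted emulsion onto soil surface at predetermined rate. Step 3: greenhouse, 25–30° C, three weeks. Step 4: grade effect on each plant by earlier criteria.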

wild oat [3] = experiment: Test Example 4: herbicidal effect by soil treatment (Table 19, symbol I); type: in vivo, wild oat (Avena fatua); conditions: amount of applied herbicide 320 g/ha
How it was run: as §3

windgrass [4] = experiment: Test Example 4: herbicidal effect by soil treatment (Table 19, symbol L); type: in vivo, windgrass (Apera spica-venti); conditions: amount of applied herbicide 320 g/ha
How it was run: as §3

velvetleaf [5] = experiment: Test Example 4: herbicidal effect by soil treatment (Table 19, symbol M); type: in vivo, velvetleaf (Abutilon theophrasti); conditions: amount of applied herbicide 320 g/ha
How it was run: as §3

lambsquarters = experiment: Test Example 4: herbicidal effect by soil treatment (Table 19, symbol O); type: in vivo, lambsquarters (Chenopodium album); conditions: amount of applied herbicide 320 g/ha
How it was run: as §3

green foxtail = experiment: Test Example 5: herbicidal effect by foliage application, plastic box (Table 20, symbol G); type: in vivo, green foxtail (Setaria viridis); conditions: foliage application, AAH 320 g/ha, evaluated three weeks after application
How it was run: (§4)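 Foliar spray test: emulsion formulation diluted in water to a set application rate, sprayed onto 14-day-old plants raised in diluvial soil at 25° C to 30° C under glass. Both herbicidal effect and crop effect rated visually three weeks later.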

wild oat [6] = experiment: Test Example 5: herbicidal effect by foliage application, plastic box (Table 20, symbol I); type: in vivo, wild oat (Avena fatua); conditions: foliage application, AAH 320 g/ha, evaluated three weeks after application
How it was run: as §4

blackgrass = experiment: Test Example 5: herbicidal effect by foliage application, plastic box (Table 20, symbol J); type: in vivo, blackgrass (Alopecurus myosuroides); conditions: foliage application, AAH 320 g/ha, evaluated three weeks after application
How it was run: as §4

windgrass [7] = experiment: Test Example 5: herbicidal effect by foliage application, plastic box (Table 20, symbol L); type: in vivo, windgrass (Apera spica-venti); conditions: foliage application, AAH 320 g/ha, evaluated three weeks after application
How it was run: as §4

velvetleaf [8] = experiment: Test Example 5: herbicidal effect by foliage application, plastic box (Table 20, symbol M); type: in vivo, velvetleaf (Abutilon theophrasti); conditions: foliage application, AAH 320 g/ha, evaluated three weeks after application
How it was run: as §4

chickweed = experiment: Test Example 5: herbicidal effect by foliage application, plastic box (Table 20, symbol P); type: in vivo, common chickweed (Stellaria media); conditions: foliage application, AAH 320 g/ha, evaluated three weeks after application
How it was run: as §4

SMILES | Herbicidal effect on B: Japanese bulrush (grade 0-5) (Japanese bulrush) | Herbicidal effect on C: oval-leafed pondweed (grade 0-5) (oval-leafed pondweed) | herbicidal effect rating, A: late watergrass (late watergrass) | herbicidal effect on H: barnyard grass (barnyard grass [1]) | herbicidal effect on D: Chinese sprangletop (Chinese sprangletop) | herbicidal effect on E: rice flat sedge (rice flat sedge) | herbicidal effect on H: barnyard grass (barnyard grass [2]) | herbicidal effect on I: wild oat (wild oat [3]) | herbicidal effect on L: windgrass (windgrass [4]) | herbicidal effect on M: velvetleaf (velvetleaf [5]) | herbicidal effect on O: lambsquarters (lambsquarters) | G: green foxtail, herbicidal effect (criteria 0-5) (green foxtail) | I: wild oat, herbicidal effect (criteria 0-5) (wild oat [6]) | J: blackgrass, herbicidal effect (criteria 0-5) (blackgrass) | L: windgrass, herbicidal effect (criteria 0-5) (windgrass [7]) | M: velvetleaf, herbicidal effect (criteria 0-5) (velvetleaf [8]) | P: chickweed, herbicidal effect (criteria 0-5) (chickweed)
Cc1nn(C)c(=O)c(-c2c(-c3ccc(OC(F)F)cc3)sc3ccc(F)cc23)c1OC(=O)c1ccc(Cl)cc1 [2-286] | 3 (Herbicidal rate of 40% or more and less than 70%) | 1 (Herbicidal rate of 5% or more and less than 20%) | 3 (Herbicidal rate of 40% or more and less than 70%) | 5 (Herbicidal rate of 90% or more (almost completely withered)) | 4 (Herbicidal rate of 70% or more and less than 90%) | 4 (Herbicidal rate of 70% or more and less than 90%) | 1 (Herbicidal rate of 5% or more and less than 20%) | 0 (Herbicidal rate of 5% or less (almost no effect)) | 0 (Herbicidal rate of 5% or less (almost no effect)) | 0 (Herbicidal rate of 5% or less (almost no effect)) | 3 (Herbicidal rate of 40% or more and less than 70%) | 5 (Herbicidal rate of 90% or more (almost completely withered)) | 1 (Herbicidal rate of 5% or more and less than 20%) | 4 (Herbicidal rate of 70% or more and less than 90%) | 0 (Herbicidal rate of 5% or less (almost no effect)) | 5 (Herbicidal rate of 90% or more (almost completely withered)) | 5 (Herbicidal rate of 90% or more (almost completely withered))
Cc1nn(C)c(=O)c(-c2c(-c3ccc(OC(F)F)cc3)sc3ccc(F)cc23)c1OC(=O)c1ccco1 [2-287] | 4 (Herbicidal rate of 70% or more and less than 90%) | 4 (Herbicidal rate of 70% or more and less than 90%) | 3 (Herbicidal rate of 40% or more and less than 70%) | 5 (Herbicidal rate of 90% or more (almost completely withered)) | 3 (Herbicidal rate of 40% or more and less than 70%) | 5 (Herbicidal rate of 90% or more (almost completely withered)) | 5 (Herbicidal rate of 90% or more (almost completely withered)) | 0 (Herbicidal rate of 5% or less (almost no effect)) | 3 (Herbicidal rate of 40% or more and less than 70%) | 5 (Herbicidal rate of 90% or more (almost completely withered)) | 5 (Herbicidal rate of 90% or more (almost completely withered)) | 5 (Herbicidal rate of 90% or more (almost completely withered)) | 3 (Herbicidal rate of 40% or more and less than 70%) | 5 (Herbicidal rate of 90% or more (almost completely withered)) | 4 (Herbicidal rate of 70% or more and less than 90%) | 5 (Herbicidal rate of 90% or more (almost completely withered)) | 5 (Herbicidal rate of 90% or more (almost completely withered))
Cc1nn(C)c(=O)c(-c2c(-c3ccc(OC(F)F)cc3)sc3ccc(F)cc23)c1OC(=O)C1CCCO1 (centres unmarked) [2-289] | 3 (Herbicidal rate of 40% or more and less than 70%) | 3 (Herbicidal rate of 40% or more and less than 70%) | 3 (Herbicidal rate of 40% or more and less than 70%) | 5 (Herbicidal rate of 90% or more (almost completely withered)) | 3 (Herbicidal rate of 40% or more and less than 70%) | 5 (Herbicidal rate of 90% or more (almost completely withered)) | 5 (Herbicidal rate of 90% or more (almost completely withered)) | 2 (Herbicidal rate of 20% or more and less than 40%) | 4 (Herbicidal rate of 70% or more and less than 90%) | 5 (Herbicidal rate of 90% or more (almost completely withered)) | 5 (Herbicidal rate of 90% or more (almost completely withered)) | 5 (Herbicidal rate of 90% or more (almost completely withered)) | 4 (Herbicidal rate of 70% or more and less than 90%) | 4 (Herbicidal rate of 70% or more and less than 90%) | 5 (Herbicidal rate of 90% or more (almost completely withered)) | 5 (Herbicidal rate of 90% or more (almost completely withered)) | 5 (Herbicidal rate of 90% or more (almost completely withered))
CCOC(=O)Oc1c(C)nn(C)c(=O)c1-c1c(-c2ccc(OC(F)F)cc2)sc2ccc(F)cc12 [2-292] | 5 (Herbicidal rate of 90% or more (almost completely withered)) | 4 (Herbicidal rate of 70% or more and less than 90%) | 5 (Herbicidal rate of 90% or more (almost completely withered)) | 5 (Herbicidal rate of 90% or more (almost completely withered)) | 4 (Herbicidal rate of 70% or more and less than 90%) | 4 (Herbicidal rate of 70% or more and less than 90%) | 5 (Herbicidal rate of 90% or more (almost completely withered)) | 0 (Herbicidal rate of 5% or less (almost no effect)) | 1 (Herbicidal rate of 5% or more and less than 20%) | 3 (Herbicidal rate of 40% or more and less than 70%) | 5 (Herbicidal rate of 90% or more (almost completely withered)) | 5 (Herbicidal rate of 90% or more (almost completely withered)) | 3 (Herbicidal rate of 40% or more and less than 70%) | 4 (Herbicidal rate of 70% or more and less than 90%) | 2 (Herbicidal rate of 20% or more and less than 40%) | 5 (Herbicidal rate of 90% or more (almost completely withered)) | 5 (Herbicidal rate of 90% or more (almost completely withered))
